# Source: patent US12029730B2, “Pharmaceutical composition for preventing or treating cancer, containing N-1H-benzimidazol-2-yl-3-(1H-pyrrole-1-yl)benzamide as active ingredient” (KOREA INSTITUTE OF RADIOLOGICAL & MEDICAL SCIENCES, priority 2018, dated 2024)
# Tests used:
# MASTL kinase = biological target: T1, MASTL kinase (Homo sapiens, UniProt Q96GX5); assay: In vitro MASTL kinase analysis, immunoblotting for phosphorylated ENSA; assay type: biochemical; conditions: western blot, 50 μM or more, FIG. 3
# T1 construct: GST; purchased Thermo Fisher Scientific
# T1 sequence (Q96GX5 1-879): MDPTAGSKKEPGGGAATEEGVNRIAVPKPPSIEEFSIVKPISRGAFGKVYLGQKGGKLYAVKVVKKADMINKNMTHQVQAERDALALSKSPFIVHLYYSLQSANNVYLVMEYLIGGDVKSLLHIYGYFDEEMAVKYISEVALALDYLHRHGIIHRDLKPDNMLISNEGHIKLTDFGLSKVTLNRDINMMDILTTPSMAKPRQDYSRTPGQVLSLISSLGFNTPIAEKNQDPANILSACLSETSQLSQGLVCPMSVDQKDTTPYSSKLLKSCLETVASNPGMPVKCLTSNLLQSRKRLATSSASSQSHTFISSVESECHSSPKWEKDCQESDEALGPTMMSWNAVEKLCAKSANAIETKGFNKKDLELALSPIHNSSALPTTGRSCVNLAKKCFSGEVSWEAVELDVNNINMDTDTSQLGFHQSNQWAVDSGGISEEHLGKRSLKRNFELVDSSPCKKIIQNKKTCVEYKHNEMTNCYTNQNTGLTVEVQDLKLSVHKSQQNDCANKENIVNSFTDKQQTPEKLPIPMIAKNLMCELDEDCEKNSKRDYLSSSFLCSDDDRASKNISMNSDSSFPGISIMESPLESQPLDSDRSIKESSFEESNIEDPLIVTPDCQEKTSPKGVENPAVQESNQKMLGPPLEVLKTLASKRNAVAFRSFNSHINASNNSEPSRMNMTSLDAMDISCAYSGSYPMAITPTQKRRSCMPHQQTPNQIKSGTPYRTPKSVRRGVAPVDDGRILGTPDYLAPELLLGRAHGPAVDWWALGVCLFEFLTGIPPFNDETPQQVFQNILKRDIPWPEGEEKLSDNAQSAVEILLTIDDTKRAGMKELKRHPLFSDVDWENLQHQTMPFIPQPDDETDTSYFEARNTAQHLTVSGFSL
# Experimental: The MASTL kinase analysis in vitro was performed by reacting recombinant GST-tagged-MASTL (Thermo Fisher Scientific, Waltham, MA, USA) and his-tagged-ENSA (Sino Biological Inc., Beijing, China) proteins or immunoprecipitated proteins derived from MCF7 cells with the MASTL antibody (AP7147d; Abgent, CA, USA) in a kinase buffer consisting of 100 mM Tris-HCl (pH 7.5), 30 mM MgCl2, 2 mM DTT, 1 mM EDTA and 10 μM ultrapure ATP. The reaction proceeded, and then stopped by treating with SDS-loading buffer. In this experiment, the multi-AGC kinase inhibitor AT13148 was used as a positive control. The reaction was analyzed by performing immunoblotting for phosphorylated ENSA, and the results of the analysis were shown in FIG. 1B, and the results of the experiments confirming the cell survival and the kinase inhibitor activity were shown in FIG. 1C.
# A protein kinase analysis was performed using the ADP-Glo™ kinase assay kit according to the standard protocol provided by Promega. […] Then, the reacted product was transferred to a 384-well white plate, and […] was read using a SpectraMax i3× Multi-Mode Microplate Reader (Molecular Devices), and GKI-1, N-(4-chlorophenyl)-3-(1H-pyrazol-4-yl)aniline and AT13148 were used as positive controls. The effect of inhibiting kinase activity of GKI-1 and MKI-1 and its IC50 confirmed through the reading result were shown in FIG. 2. […]
# [1] = tested on: MASTL kinase (phosphorylated ENSA); assay: Immunofluorescence staining of phosphorylated ENSA (Ser67)/ARPP19 (ser62) in MCF7; assay type: cell-based, human; conditions: with Colcemid 16 to 18 hours, FIG. 4
# Experimental: After culturing 2.5×10^4 MCF7 cells in a 6-well plate for 24 hours, 80 ng/mL of a MASTL kinase inhibitor and a cell cycle control agent Colcemid (KaryoMAX™ Colcemid™ Solution in PBS; Gibco) were treated for 16 to 18 hours. After washing with phosphate buffered saline for fixation and permeabilization of cells, 4% paraformaldehyde and 0.2% Triton-X were added and reacted for 10 minutes, respectively. After 1 hour pretreatment with 5% fetal bovine serum, 1:100 diluted antibody against phosphorylated ENSA (Ser67)/ARPP19 (ser62) was treated for 16 hours, and then it was washed with 0.1% Triton X-100/phosphate buffered saline solution (Tritonx-100/PBS) 3 times. Alexa488-conjugated secondary antibody (AP132JA4, Invitrogen) was reacted for 2 hours at room temperature to label, and phosphorylated ENSA was photographed and analyzed using IN Cell Analyzer 6000 (GE Healthcare Life Science).
# MASTL kinase (p-ENSA) = assay: Western blotting of phosphorylated ENSA in MCF7 cells; assay type: cell-based, human; conditions: western blot, FIG. 5
# Experimental: (§1) 20 μg of protein was separated by SDS-PAGE electrophoresis and transferred to a PVDF membrane, and the following specific antibodies were used: rabbit polyclonal antibody MASTL (Abgent); phospho-ENSA (Ser67)/ARPP19 (Ser62) (#5240), ENSA (#11915S), cleaved PARP (Asp214) (#9541), AKT (#9272), phospho-AKT (ser473) (#9271), phospho-GSK-3α/β (Ser21/9) (#9331), phospho-p70S6K (The 288) (#9205) and phospho-Chk2 (Thr68) (#2661; Cell Signaling Technology, MA); p70S6K (sc-230; Santa Cruz Biotechnology, CA, USA), phospho-H3 (S10) (06-570, Merck, NJ); mouse monoclonal antibody caspase-2 (#2224S). In addition, mouse […] antibody β-actin (C4; Santa Cruz Biotechnology, CA, USA) was used as a loading control, it was washed with 1×PBS/0.1% Tween 20, and the binding protein was detected using HRP-binding secondary antibody and improved chemiluminescence detection system. The remaining conditions of Western blotting were the same as in Example 3, and the image of the band was obtained by Amersham Imager 600 system (GE Healthcare Life Science) or X-Ray film (AG, HealthCare, SC, USA) and it was shown in FIG. 5.
# AKT = assay: Western blotting of AKT and GSK-3 phosphorylation in MCF7 cells; assay type: cell-based, human; conditions: western blot, FIG. 5
# Experimental: as §1
# phospho-H3 (S10) = assay: Western blotting of phosphorylated H3 in MCF7 cells; assay type: cell-based, human; conditions: western blot, FIG. 5
# Experimental: as §1
compound,measurement,setting,value
"O=C(Nc1nc2ccccc2[nH]1)c1cccc(-n2cccc2)c1 [MKI-1, N-1H-benzimidazol-2-yl-3-(1H-pyrrol-1-yl) benzamide]",ENSA phosphorylation (p-ENSA) in vitro,MASTL kinase,p-ENSA did not appear
same,phosphorylation of ENSA in MCF7 relative to DMSO,[1],close to about half of that of DMSO
same,expression level of phosphorylated p-ENSA,MASTL kinase (p-ENSA),reduced the expression level of phosphorylated p-ENSA in MCF7 cells in a dose-dependent manner
same,activation of AKT / phosphorylated GSK-3,AKT,did not regulate the activities of AKT and phosphorylated GSK-3P
same,expression level of phosphorylated H3,phospho-H3 (S10),increased the expression level of phosphorylated H3 in a dose-dependent manner
